The values below come from patent US10538482B2, “Adamantane and memantine derivatives as peripheral NMDA receptor antagonists” (Institut National de la Santé et de la Recherche Médicale …, priority 2015, dated 2020).

Several values for one entry are separate records, joined by “and”; a condition that tells them apart may be missing. Equal values may be shown once. Read-outs that look alike come from different tables or passages of the source.

Broadly, the IC50 is the point on the concentration scale where inhibition reaches its midpoint.

Data set [1] can be described thus: In vivo brain penetration measurement in rat (plasma and brain concentration, Kp"brain"). Particulars: for Brain concentration / Plasma concentration / concentration at 3.75 h: male Sprague-Dawley rat, end of 3.75 h constant-rate i.v. infusion; for Brain concentration / Plasma concentration / concentration at 3.75 h / Kp at 3.75 h / Kp"brain" (total brain/plasma concentration ratio at steady state): 4 mg/kg; for concentration at 3.75 h / Kp at 3.75 h: male, Sprague-Dawley, iv; for Kp at 3.75 h: brain/plasma; for Kp at 3.75 h / Kp"brain" (total brain/plasma concentration ratio at steady state): 3.75 h i.v. infusion. Here is the method: The femoral vein of male Sprague-Dawley rats (CRL) weighing around 250 g was surgically catheterized at least 72 hours prior to the experiment. The drug was administered as 3.75 h constant-rate intravenous infusion to approach steady state, using a flow rate of 0.8 mL/h, corresponding to dosage of 4 mg/kg (1.067 mg/kg/h, i.e. 1 mg/rat of ˜250 g). The vehicle used was saline.
At the end of the infusion, the rats were anesthetized by inhalation of isoflurane, and blood was collected in a heparinized tube from the abdominal aorta, followed by immediate rinsing of the bloodstream for 2 minutes with saline at a rate of 15 mL/min using a peristaltic pump and left intraventricle cannula (flowing via right atrium). The brain (without cerebellum) was removed, and transferred in a tube and homogenized in two volumes of deionized water using a tissue homogenizer (Precellys24). All samples were stored at −20° C. until analysis. Plasma and brain homogenate sample preparation was performed using solid phase extraction on OASIS® WCX (Waters) and compounds were quantified by reversed phase liquid chromatography and positive electrospray ionization and multiple reaction monitoring mass spectrometry (LC-MS/MS).
This parameter is defined as the ratio of concentrations in brain and blood, Kp“brain” (Cbrain/Cplasma) or log(BB). Log(BB) is the logarithm of the ratio of the steady-state total concentration of a compound in the brain to that in the blood/plasma, log(BB)=log(Cbrain/Cplasma). This parameter depends upon the passive diffusion characteristics, the implication of membrane transporters at the BBB level and the relative drug binding affinity differences between the plasma proteins and brain tissue. Generally, compounds with a brain/plasma ratio of greater than 0.3-0.5 are considered to have sufficient access to the CNS, compounds with a value greater than 1 freely cross the BBB, whereas compounds with a brain/plasma ratio smaller than 0.1 may be unable to enter the CNS.
Thus, the brain penetration of memantine and Compound N^o1 was measured in rat by establishing the brain/plasma ratio, Kp“brain” in triplicate (3 rats/Compound). The three tables below (Tables 1-3) show the results on plasma concentration, brain concentration and calculation of the Kp“brain” for the two compounds memantine and Compound N^° 1.

The test system of a further data set is NMDAR. Nature of the data set: NMDAR blocking activity, whole-cell voltage clamp (patch-clamp) recordings from rat hippocampal neurons. The data set is classed as cell-based. The settings on record: read-out: IC50 (NMDAR antagonist activity). On the technique in general: The patch-clamp technique gives a direct electrical read-out from membranes.
Where [2] appears, read: rat, brain, mean of 3 rats, read-out: Brain concentration, Mean.
The mark [3] stands for this setting: rat, rat, mean of 3 rats, read-out: Kp"brain", Mean.
[4] abbreviates: rat, plasma, individual rats, read-out: Plasma concentration.
Setting [5] is: rat, plasma, mean of 3 rats, read-out: Plasma concentration, Mean.
The mark [6] stands for this setting: rat hippocampal neurons, -60 mV, currents evoked by 100 μM NMDA and 20 μM D-serine.

Turning to `CC12CC3CC(C)(C1)CC(N)(C3)C2` [Memantine, memantine], the Brain concentration in data set [1] (individual rats) was 2977 ng/g and 3237 ng/g. In data set [1] (individual rats), the Plasma concentration is 88.69 ng/mL and 94.85 ng/mL. Further, the concentration at 3.75 h in data set [1] (rat, brain, individual rats, read-out: Brain concentration) was 3340 ng/g; in data set [1] (setting [2]), 3180 ng/g; in data set [1] (setting [4]), 123 ng/mL; in data set [1] (setting [5]), 102 ng/mL. The Kp at 3.75 h in data set [1] (rat, rat, individual rats, read-out: Kp"brain" (total brain/plasma concentration ratio at steady state)) turned out to be 27.1; in data set [1] (setting [3]), 31.6. Further, in data set [1] (rat), the “Penetration of the BBB / CNS (in words)” value was “penetrates freely across the BBB”. Also, the “Kp"brain" (total brain/plasma concentration ratio at steady state)” value in data set [1] (rat, individual rats) was 33.57 and 34.13. The concentration for half-maximal inhibition (IC50) in the data set on NMDAR was 1 µM.
In the case of `CC12CC3CC(C)(C1)CC([N+](C)(C)C)(C3)C2` [Compound No1, N,N,N,3,5-Pentamethyladamantan-1-ammonium iodide], the Brain concentration in data set [1] (individual rats) is 0.90 ng/g and 3.57 ng/g and 3.03 ng/g. In data set [1] (individual rats), the Plasma concentration is 23.11 ng/mL and 24.52 ng/mL. Moreover, the concentration at 3.75 h was determined as 2.5 ng/g in data set [1] (setting [2]), 34.8 ng/mL in data set [1] (setting [4]) and 27.5 ng/mL in data set [1] (setting [5]). Moreover, in data set [1] (setting [3]), the Kp at 3.75 h came to 0.091. Also, the “Kp"brain" (total brain/plasma concentration ratio at steady state)” value in data set [1] (rat, individual rats) is 0.15 and 0.09 and 0.04. The IC50 in the data set with NMDAR (setting [6]) stood at 9.9 µM.
In the case of `CC12CC3CC(C)(C1)CC([N+](C)(C)CC1CCCCC1)(C3)C2` [Compound No9, N-(Cyclohexylmethyl)-N,N-3,5-tetramethyladamantan-1-ammonium iodide], in the data set on NMDAR (setting [6]), the IC50 was 35.2 µM.
Same read-out and setting: as for `CC[N+](C)(C)C12CC3CC(C)(CC(C)(C3)C1)C2` [Compound No2, N-Ethyl-N,N-3,5-tetramethyladamantan-1-ammonium iodide], the figure is 18 µM.
Consider `CC12CC3CC(C)(C1)CC([N+](C)(C)C)(C3)C2` [Compound No1′], for which the IC50 was approximately 10 µM with NMDAR (rat hippocampal neurons, -60 mV, currents evoked by 100 μM NMDA and 20 μM D-serine, listed as Compound N^o1′); 11.6 µM in the data set on NMDAR (setting [6]).
Regarding `CCCC[N+](C)(C)C12CC3CC(C)(CC(C)(C3)C1)C2` [Compound No4, N-Butyl-N,N-3,5-tetramethyladamantan-1-ammonium iodide], in the data set on NMDAR (setting [6]), the IC50 worked out at 110 µM.
Turning to `CCC[N+](C)(C)C12CC3CC(C)(CC(C)(C3)C1)C2` [Compound No3, N-Propyl-N,N-3,5-tetramethyladamantan-1-ammonium iodide], the IC50 with NMDAR (setting [6]) was 29 µM.
On the same count and under the same terms, as for `CC(C)CC[N+](C)(C)C12CC3CC(C)(CC(C)(C3)C1)C2` [Compound No6, N-isoPentyl-N,N-3-5-tetramethyladamantan-1-ammonium iodide], the figure is 14.3 µM; as for `CC12CC3CC(C)(C1)CC([N+](C)(C)CC1CC1)(C3)C2` [Compound No8, N-(Cyclopropylmethyl)-N,N-3,5-tetramethyladamantan-1-ammonium iodide], 3.5 µM.
